Data on four molecules can be found in ChEMBL document CHEMBL1145662, “Catharanthus alkaloids, XXXVIII. Confirming structural evidence and antineoplastic activity of the bisindole alkaloids leurosine-N'b-oxide (pleurosine), roseadine and vindolicine from Catharanthus roseus” (J Nat Prod, 1983).

The structures appear in SMILES notation.

For series [1], the system named is CX-1. In words: Antitumor activity against human CX-1 cells xenografted in Swiss nu/nu athymic mouse at 80 mg/kg on 4th,8th,12th and 16th day relative to control. The format is functional. (In xenograft studies the graft and the host belong to different species.)
Series [2] has as its system B16. In words: Antitumor activity against mouse B16 cells xenografted in B6C3F1 mouse at 10 mg/kg for 1 to 9 days relative to control. The format is functional.
For series [3], the system named is MC-38. Put plainly: Antitumor activity against mouse Colon 38 cells xenografted in Swiss mouse at 10 mg/kg for 1 to 2 days relative to control. The format is functional.
Series [4] deals with CX-1. In words: Antitumor activity against human CX-1 cells xenografted in Swiss nu/nu athymic mouse at 40 mg/kg on 4th,8th,12th and 16th day relative to control. The series is classed as functional.
Series [5] concerns L1210. In words: Antitumor activity against mouse L1210 cells xenografted in CD2F1 mouse at 5 mg/kg for 1 to 9 days relative to control. The series is classed as functional.
The test system of series [6] is L1210. In words: Antitumor activity against mouse L1210 cells xenografted in CD2F1 mouse at 20 mg/kg for 1 to 9 days relative to control. The format is functional.
Series [7] deals with Mus musculus. In words: Toxicity in mouse P388 cells xenografted in CD2F1 mouse at 20 mg/kg. Details: dose 20 mg/kg. As to conditions: in vivo. The series is classed as organism-based.
Series [8] deals with L1210. In words: Antitumor activity against mouse L1210 cells xenografted in CD2F1 mouse at 10 mg/kg for 1 to 9 days relative to control. The series is classed as functional.
The subject of series [9] is P388. In words: Antitumor activity against mouse P388 cells xenografted in CD2F1 mouse at 4 mg/kg after 1 day relative to control. The series is classed as functional.
The subject of series [10] is P388. Put plainly: Antitumor activity against mouse P388 cells xenografted in CD2F1 mouse at 6.25 mg/kg for 1 to 9 days relative to control. The series is classed as functional.
In series [11] the test system is P388. Put plainly: Antitumor activity against mouse P388 cells xenografted in CD2F1 mouse at 12.5 mg/kg for 1 to 9 days relative to control. The format is functional.
The subject of series [12] is CX-1. In words: Antitumor activity against human CX-1 cells xenografted in Swiss nu/nu athymic mouse at 160 mg/kg on 4th,8th,12th and 16th day relative to control. The format is functional.
Series [13] relates to P388. In words: Antitumor activity against mouse P388 cells xenografted in CD2F1 mouse at 25 mg/kg for 1 to 9 days relative to control. The format is functional.
Series [14] has as its system MC-38. In words: Antitumor activity against mouse Colon 38 cells xenografted in Swiss mouse at 20 mg/kg for 1 to 2 days relative to control. The series is classed as functional.
In series [15] the test system is P388. In words: Antitumor activity against mouse P388 cells xenografted in CD2F1 mouse at 8 mg/kg after 1 day relative to control. The series is classed as functional.
The test system of series [16] is CX-1. Put plainly: Antitumor activity against human CX-1 cells xenografted in Swiss nu/nu athymic mouse at 20 mg/kg on 4th,8th,12th and 16th day relative to control. The format is functional.
For series [17], the system named is P388. Put plainly: Antitumor activity against mouse P388 cells xenografted in CD2F1 mouse at 6.25 mg/kg on 3rd, 6th and 9th day relative to control. The format is functional.
Series [18] has as its system P388. Put plainly: Antitumor activity against mouse P388 cells xenografted in CD2F1 mouse at 32 mg/kg after 1 day relative to control. The series is classed as functional.
Series [19] has as its system P388. Put plainly: Antitumor activity against mouse P388 cells xenografted in CD2F1 mouse at 12.5 mg/kg on 3rd, 6th and 9th day relative to control. The format is functional.
For series [20], the system named is P388. In words: Antitumor activity against mouse P388 cells xenografted in CD2F1 mouse at 16 mg/kg after 1 day relative to control. The series is classed as functional.
The subject of series [21] is B16. In words: Antitumor activity against mouse B16 cells xenografted in B6C3F1 mouse at 2.5 mg/kg for 1 to 9 days relative to control. The series is classed as functional.
The subject of series [22] is MC-38. In words: Antitumor activity against mouse Colon 38 cells xenografted in Swiss mouse at 5 mg/kg for 1 to 2 days relative to control. The series is classed as functional.
Series [23] concerns P388. Put plainly: Antitumor activity against mouse P388 cells xenografted in CD2F1 mouse at 25 mg/kg on 3rd, 6th and 9th day relative to control. The format is functional.
Series [24] has as its system B16. In words: Antitumor activity against mouse B16 cells xenografted in B6C3F1 mouse at 5 mg/kg for 1 to 9 days relative to control. The format is functional.
The test system of series [25] is P388. In words: Antitumor activity against mouse P388 cells xenografted in CD2F1 mouse at 2 mg/kg relative to control. The format is functional.
In series [26] the test system is P388. Put plainly: Antitumor activity against mouse P388 cells xenografted in CD2F1 mouse at 1 mg/kg relative to control. The series is classed as functional.
Series [27] relates to B16. Put plainly: Antitumor activity against mouse B16 cells xenografted in B6C3F1 mouse at 0.5 mg/kg relative to control. The format is functional.

By T/C is commonly meant the ratio of treated to control.

Turning to `CC[C@@]12C[N+]3([O-])CCc4c([nH]c5ccccc45)[C@@](C(=O)OC)(c4cc5c(cc4OC)N(C)[C@H]4[C@@](O)(C(=O)OC)[C@H](OC(C)=O)[C@]6(CC)C=CCN7CC[C@]54[C@@H]76)C[C@@H](C[C@@H]1O2)C3`, the T/C in series [1] was 85%; in series [2], 309%; in [3], 108%; in [4] it was 60%; in series [5], 101%; in [6], 112%. In addition, the T/C in series [8] is 133%; in series [9], 142%; in [10], 154%; in series [11], 163%; in [12] it was 71%; in series [13] it was 181%. The T/C turned out to be 82% in series [14]; 161% in [15]; 81% in series [16]; 168% in series [17]; 140% in series [18]; 177% in series [19]. In addition, the T/C in series [20] was determined as 193%; in series [21], 189%; in [22], 84%; in [23], 181%; in series [24], 261%. Besides, the Activity entry in series [7] is “Toxic”.
As for `CC[C@]1(O)CN2CCc3c([nH]c4ccccc34)[C@@H]1[C@@H](/C=C(\C(=O)OC)c1cc3c(cc1OC)N(C)C1[C@]34CCN3CC=C[C@](CC)(C34)[C@@H](OC(C)=O)[C@]1(O)C(=O)OC)C2` (some centres not stated) [ROSEADINE], the T/C in [25] stood at 176%.
Take `CC[C@@H]1C[C@H]2CN(CCc3c([nH]c4ccccc34)[C@@](C(=O)OC)(c3cc4c(cc3OC)N(C)[C@H]3[C@@](O)(C(=O)OC)[C@H](OC(C)=O)[C@]5(CC)C=CCN6CC[C@]43[C@@H]65)C2)C1` [ROSEAMINE]: the T/C in series [26] came to 161%.
In series [27], `CC[C@]1(O)C[C@@H]2CN(CCc3c([nH]c4ccccc34)[C@@](C(=O)OC)(c3cc4c(cc3OC)N(C)[C@H]3[C@@](O)(C(=O)OC)[C@H](OC(C)=O)[C@]5(CC)C=CCN6CC[C@]43[C@@H]65)C2)C1` [VINBLASTINE] came in with a T/C of 309%.
